From paper PMC9558907, “Synthesis and pharmacological evaluation of newly detected synthetic cannabinoid receptor agonists AB-4CN-BUTICA, MMB-4CN-BUTINACA, MDMB-4F-BUTICA, MDMB-4F-BUTINACA and their analogs” (Frontiers in Psychiatry, 2022)

Experiments:
human CB2 [1] = target: T1, human CB2 (Homo sapiens, UniProt P34972); experiment: competitive radioligand binding assay, displacement of [3H]CP55,940, HEK cell membranes; set-up: expressed in transfected cells; host or cells: HEK293 cells, P2 membrane preparation; conditions: [3H]CP55,940 1 nM
T1 sequence (P34972 whole entry): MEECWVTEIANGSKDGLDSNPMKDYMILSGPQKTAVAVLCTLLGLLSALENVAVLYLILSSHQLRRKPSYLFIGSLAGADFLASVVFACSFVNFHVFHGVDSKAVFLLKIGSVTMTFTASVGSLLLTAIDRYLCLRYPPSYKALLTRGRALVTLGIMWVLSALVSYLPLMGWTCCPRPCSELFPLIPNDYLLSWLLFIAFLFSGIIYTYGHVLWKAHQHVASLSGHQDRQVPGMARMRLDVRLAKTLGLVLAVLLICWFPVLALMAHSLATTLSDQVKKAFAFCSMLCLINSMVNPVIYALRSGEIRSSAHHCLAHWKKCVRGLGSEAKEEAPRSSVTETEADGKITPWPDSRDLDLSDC

human CB1 [2] = target: T2, human CB1 (Homo sapiens, UniProt P21554); experiment: as above; set-up: expressed in transfected cells; host or cells: HEK293 cells, P2 membrane preparation; conditions: [3H]CP55,940 1 nM
T2 sequence (P21554 whole entry): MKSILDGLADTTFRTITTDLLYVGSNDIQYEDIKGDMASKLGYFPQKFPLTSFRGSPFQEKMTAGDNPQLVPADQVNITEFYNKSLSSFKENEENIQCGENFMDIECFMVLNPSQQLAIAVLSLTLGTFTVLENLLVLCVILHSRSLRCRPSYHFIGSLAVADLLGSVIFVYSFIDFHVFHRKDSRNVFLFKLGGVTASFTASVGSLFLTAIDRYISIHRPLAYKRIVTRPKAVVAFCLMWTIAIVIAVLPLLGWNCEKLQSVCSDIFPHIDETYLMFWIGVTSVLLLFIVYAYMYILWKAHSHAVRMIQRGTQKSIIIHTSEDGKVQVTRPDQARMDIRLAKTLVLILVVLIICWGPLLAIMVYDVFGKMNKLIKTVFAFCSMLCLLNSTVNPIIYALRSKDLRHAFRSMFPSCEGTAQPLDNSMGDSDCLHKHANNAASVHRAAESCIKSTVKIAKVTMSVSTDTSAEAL

human CB1 [3] = target: T2, human CB1; experiment: fluorescence-based membrane potential assay (GIRK activation) in AtT20 cells; type: cell-based; set-up: expressed in transfected cells; host or cells: mouse AtT20 FlpIn cells; conditions: for hCB1 Emax ±SEM: normalised to 1 μM CP55,940; for hCB1 maximal response at 10 μM (footnote d): highest concentration tested, curve not fitted
human CB2 [4] = target: T1, human CB2; experiment: as above; type: cell-based; set-up: expressed in transfected cells; host or cells: mouse AtT20 FlpIn cells; conditions: for hCB2 Emax ±SEM: normalised to 1 μM CP55,940
CB1 = test system: CB1; set-up: method as in PMID 26134475; conditions: cited from earlier work
CB2 = test system: CB2; set-up: method as in PMID 26134475; conditions: cited from earlier work
[5] = hCB2 Ki, value in brackets after pKi
[6] = hCB1 Ki, value in brackets after pKi
[7] = hCB1 EC50, AtT20-hCB1, value in brackets after pEC50
[8] = hCB2 EC50, AtT20-hCB2, value in brackets after pEC50
[9] = hCB1 pKi ±SEM, mean ± SEM of 3 to 6 independent experiments
[10] = hCB2 pKi ±SEM, mean ± SEM of 3 to 6 independent experiments

SMILES | melting point [°C] | Ki (human CB2 [1]; [5]) [nM] | Ki (human CB1 [2]; [6]) [nM] | hCB1 Emax ±SEM (human CB1 [3]; AtT20-hCB1) | EC50 (human CB1 [3]; [7]) [nM] | hCB2 Emax ±SEM (human CB2 [4]; AtT20-hCB2) | EC50 (human CB2 [4]; [8]) [nM] | EC50 (human CB1 [3]; hCB1 pEC50 ±SEM, AtT20-hCB1, DNC = did not converge, ND = < 50% change in fluorescence at 10 μM) [nM] | Ki (human CB1 [2]; [9]) [nM] | Ki (human CB2 [1]; [10]) [nM] | hCB1 maximal response at 10 μM (footnote d) (human CB1 [3]; AtT20-hCB1) | hCB1 maximal response at 10 μM (footnote d) (human CB1 [3]; AtT20-hCB1, listed as APP-4F-BUTICA (27)) | hCB1 pEC50 ±SEM (human CB1 [3]; AtT20-hCB1, DNC = did not converge, ND = < 50% change in fluorescence at 10 μM) | hCB1 maximal response at 10 μM (footnote d) (human CB1 [3]; AtT20-hCB1, listed as APP-4F-BUT7AICA (33)) | EC50 (human CB2 [4]; hCB2 pEC50 ±SEM, AtT20-hCB2) [nM] | Emax at CB1 (CB1) [%] | pEC50 at CB1 (CB1) | effect at 30 μM at CB2 (CB2) [%]
COC(=O)[C@@H](NC(=O)c1cn(CCCCC#N)c2ccccc12)C(C)(C)C [Compound 18, methyl (S)-2-(1-(4-cyanobutyl)-1H-indole-3-carboxamido)-3,3-dimethylbutanoate] | 124 to 127 | 2.04 | 6.61 | 111 ± 3 % CP55,940 | 2.68 | 101 ± 4 % CP55,940 | 4.04 | – | – | – | – | – | – | – | – | – | – | –
COC(=O)[C@H](Cc1ccccc1)NC(=O)c1cn(CCCCC#N)c2ccccc12 [Compound 19, methyl (1-(4-cyanobutyl)-1H-indole-3-carbonyl)-L-phenylalaninate] | 144 to 146 | 8.71 | 85.1 | 109 ± 3 % CP55,940 | 35.5 | 105 ± 3 % CP55,940 | 8.44 | – | – | – | – | – | – | – | – | – | – | –
COC(=O)[C@H](Cc1ccccc1)NC(=O)c1nn(CCCCC#N)c2ccccc12 [Compound 21, methyl (1-(4-cyanobutyl)-1H-indazole-3-carbonyl)-L-phenylalaninate] | 82.5 to 84.5 | 3.8 | 20.9 | 115 ± 3 % CP55,940 | 8.72 | 100 ± 2 % CP55,940 | 3.24 | – | – | – | – | – | – | – | – | – | – | –
COC(=O)[C@H](Cc1ccccc1)NC(=O)c1cn(CCCCC#N)c2ncccc12 [Compound 24, methyl (1-(4-cyanobutyl)-1H-pyrrolo[2,3-b]pyridine-3-carbonyl)-L-phenylalaninate] | 102 to 105 | 55 | 380 | 110 ± 5 % CP55,940 | 189 | 104 ± 2 % CP55,940 | 14.3 | 186 | – | – | – | – | – | – | – | – | – | –
CC(C)[C@H](NC(=O)c1cn(CCCCF)c2ccccc12)C(N)=O [Compound 25, (S)-N-(1-amino-3-methyl-1-oxobutan-2-yl)-1-(4-fluorobutyl)-1H-indole-3-carboxamide] | 225 to 227 | 82 | 1000 | 108 ± 3 % CP55,940 | 96.5 | 97 ± 2 % CP55,940 | 23.5 | – | – | – | – | – | – | – | – | – | – | –
CC(C)(C)[C@H](NC(=O)c1cn(CCCCF)c2ccccc12)C(N)=O [Compound 26, (S)-N-(1-amino-3,3-dimethyl-1-oxobutan-2-yl)-1-(4-fluorobutyl)-1H-indole-3-carboxamide] | 92 to 94 | 8 | – | 110 ± 4 % CP55,940 | 40.4 | 105 ± 4 % CP55,940 | 44.1 | – | 34.7 | – | – | – | – | – | – | – | – | –
NC(=O)[C@H](Cc1ccccc1)NC(=O)c1cn(CCCCF)c2ccccc12 [Compound 27, (S)-N-(1-amino-1-oxo-3-phenylpropan-2-yl)-1-(4-fluorobutyl)-1H-indole-3-carboxamide] | 102 to 104 | 170 | 3200 | – | – | 108 ± 8 % CP55,940 | 306 | – | 3160 | 174 | submaximal agonist activity | 82 ± 4^d % CP55,940 | DNC^b | – | – | – | – | –
CC(C)[C@H](NC(=O)c1nn(CCCCF)c2ccccc12)C(N)=O [Compound 28, (S)-N-(1-amino-3-methyl-1-oxobutan-2-yl)-1-(4-fluorobutyl)-1H-indazole-3-carboxamide] | 188 to 190 | 8.5 | – | 107 ± 2 % CP55,940 | 5.98 | 96 ± 1 % CP55,940 | 4.85 | – | 132 | – | – | – | – | – | – | – | – | –
CC(C)(C)[C@H](NC(=O)c1nn(CCCCF)c2ccccc12)C(N)=O [Compound 29, (S)-N-(1-amino-3,3-dimethyl-1-oxobutan-2-yl)-1-(4-fluorobutyl)-1H-indazole-3-carboxamide] | 77 to 79 | 0.69 | 4.07 | 116± 2 % CP55,940 | 1.61 | 103 ± 2 % CP55,940 | 5.28 | – | – | – | – | – | – | – | – | – | – | –
NC(=O)[C@H](Cc1ccccc1)NC(=O)c1nn(CCCCF)c2ccccc12 [Compound 30, (S)-N-(1-amino-1-oxo-3-phenylpropan-2-yl)-1-(4-fluorobutyl)-1H-indazole-3-carboxamide] | 100 to 103 | 28.2 | 1380 | 103 ± 3 % CP55,940 | 504 | 101 ± 12 % CP55,940 | 8.35 | – | – | – | – | – | – | – | – | – | – | –
CC(C)(C)[C@H](NC(=O)c1cn(CCCCF)c2ncccc12)C(N)=O [Compound 32, (S)-N-(1-amino-3,3-dimethyl-1-oxobutan-2-yl)-1-(4-fluorobutyl)-1H-pyrrolo[2,3-b]pyridine-3-carboxamide] | 95 to 96 | 46 | 1300 | 112 ± 6 % CP55,940 | 46 | 108 ± 2 % CP55,940 | 4.99 | – | 1260 | – | – | – | – | – | – | – | – | –
NC(=O)[C@H](Cc1ccccc1)NC(=O)c1cn(CCCCF)c2ncccc12 [Compound 33, (S)-N-(1-amino-1-oxo-3-phenylpropan-2-yl)-1-(4-fluorobutyl)-1H-pyrrolo[2,3-b]pyridine-3-carboxamide] | 153 to 154 | 2400 | – | – | – | 99 ± 12 % CP55,940 | 1170 | – | > 10000 | – | submaximal agonist activity | – | – | 25 ± 14^d % CP55,940 | – | – | – | –
COC(=O)[C@@H](NC(=O)c1cn(CCCCF)c2ccccc12)C(C)C [Compound 34, methyl (1-(4-fluorobutyl)-1H-indole-3-carbonyl)-L-valinate] | 111 to 114 | 26.9 | 97.7 | 116 ± 3 % CP55,940 | 76.9 | 102 ± 2 % CP55,940 | 11.4 | – | – | – | – | – | – | – | 11.2 | – | – | –
COC(=O)[C@H](Cc1ccccc1)NC(=O)c1cn(CCCCF)c2ccccc12 [Compound 35, methyl (1-(4-fluorobutyl)-1H-indole-3-carbonyl)-L-phenylalaninate] | 124 to 126 | 6.1 | 270 | 105 ± 2 % CP55,940 | 36.6 | 100 ± 2 % CP55,940 | 10.1 | – | – | 6.03 | – | – | – | – | – | – | – | –
COC(=O)[C@@H](NC(=O)c1cn(CCCCF)c2ncccc12)C(C)C [Compound 38, methyl (1-(4-fluorobutyl)-1H-pyrrolo[2,3-b]pyridine-3-carbonyl)-L-valinate] | 81 to 82 | 61 | 220 | 115 ± 16 % CP55,940 | 1390 | 114 ± 6 % CP55,940 | 49.6 | – | 224 | 60.3 | – | – | – | – | – | – | – | –
COC(=O)[C@@H](NC(=O)c1cn(CCCCF)c2ncccc12)C(C)(C)C [Compound 39, methyl (S)-2-(1-(4-fluorobutyl)-1H-pyrrolo[2,3-b]pyridine-3-carboxamido)-3,3-dimethylbutanoate] | 56 to 58 | 2.14 | 107 | 109 ± 3 % CP55,940 | 22.2 | 95 ± 2 % CP55,940 | 3.88 | – | – | – | – | – | – | – | – | – | – | –
COC(=O)[C@H](Cc1ccccc1)NC(=O)c1cn(CCCCF)c2ncccc12 [Compound 40, methyl (1-(4-fluorobutyl)-1H-pyrrolo[2,3-b]pyridine-3-carbonyl)-L-phenylalaninate] | 109 to 112 | – | 880 | 122 ± 10 % CP55,940 | 637 | 110 ± 6 % CP55,940 | 26.9 | – | – | 28.8 | – | – | – | – | – | – | – | –
CCCCCc1cc(O)c2c(c1)OC(C)(C)[C@@H]1CCC(C)=C[C@@H]21 [THC, Δ^9-tetrahydrocannabinol] | – | – | – | – | – | – | – | – | – | – | – | – | – | – | – | 58 | 6.76 ± 0.09 | 32
